Results from patent publication US20250228832A1, “METHODS FOR TREATING DISORDERS AMELIORATED BY MUSCARINIC RECEPTOR ACTIVATION” (KARUNA THERAPEUTICS, INC., priority 2022, published 2025).
Read-outs that look alike come from different tables or passages of the source.

Legend:
human M1 receptor = target: T1, human M1 receptor (Homo sapiens, UniProt P11229); test: HTRF IP-One curve shift assay, M1; type: cell-based
T1 construct: expressed in transfected cells
T1 sequence (P11229 1-460): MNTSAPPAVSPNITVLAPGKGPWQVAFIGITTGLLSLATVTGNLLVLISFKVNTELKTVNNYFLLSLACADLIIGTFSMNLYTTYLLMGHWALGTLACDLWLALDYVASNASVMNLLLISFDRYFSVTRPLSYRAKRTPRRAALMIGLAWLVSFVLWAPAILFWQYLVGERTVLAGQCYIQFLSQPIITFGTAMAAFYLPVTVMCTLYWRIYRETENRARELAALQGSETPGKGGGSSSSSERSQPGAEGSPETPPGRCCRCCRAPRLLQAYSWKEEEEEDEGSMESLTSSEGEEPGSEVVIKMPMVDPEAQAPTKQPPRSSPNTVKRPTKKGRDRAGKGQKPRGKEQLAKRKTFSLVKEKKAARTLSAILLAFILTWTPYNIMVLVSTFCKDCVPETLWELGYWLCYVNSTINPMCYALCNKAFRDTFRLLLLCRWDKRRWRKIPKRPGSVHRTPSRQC
Method: (§1) HTRF IP-One assays were performed using frozen cell aliquots prepared from CHO-K1 cell lines stably expressing human M1, M3, or M5 receptors. Cells were frozen following typical cell freezing protocols. […] Dissociated cells were quenched in full media and collected by centrifugation at 290×g for 5 min. […] 1 mL aliquots of cells were dispensed into cryovial tubes and frozen in a controlled rate cryo-freezer container at −80° C. Cells were stored at −80° C. (or in liquid nitrogen if stored for at least six months) until the day of the assay.
(§2) On the day before the assay, frozen cells were rapidly thawed in a 37° C. water bath, brought up in 20 mL of full media, and collected via centrifugation at 290×g for 5 min. […] Next, […] of cells (10,000 cells/well) were dispensed into 384-well coming plates in triplicate. Cells were incubated overnight in a 37° C., 5% CO2 cell incubator.
(§3) Then, 2 μL of test compounds were added to the cells and incubated for 10 min at 37° C. in a 5% CO2 cell incubator. Next, 2 μL of diluted agonists serially diluted in assay buffer at 7× final assay concentration was added to assay plates. Finally, assay plates were incubated for two hours at 37° C. in a 5% CO2 cell incubator.
(§4) Six μL of IP-1 detection reagents (IP-One Gq HTRF kit, Cisbio Cat #62IPAPEJ) were dispensed to the cells. First, the plates were incubated for two hours at room temperature (IP-One detection reagents were made according to Cisbio protocol). Then, plates were read on an Envision plate reader following the Cisbio guidelines.
(§5) Raw data for all assays was transmitted directly from plate readers into the Beacon database for processing. All assay plates contained positive and negative control wells for data normalization and scaling. […] All control wells contained DMSO at a final assay concentration that matched the test compound wells.
(§6) Counts from the standard curve wells were used to generate a sigmoidal standard curve, which was used to transform the raw counts from each well on the plate (scaling control wells and compound wells) into a pmol/well IP1 value.

human M5 receptor = target: T2, human M5 receptor (Homo sapiens, UniProt P08912); test: HTRF IP-One curve shift assay, M5; type: cell-based; conditions: M5
T2 construct: expressed in transfected cells
T2 sequence (P08912 1-532): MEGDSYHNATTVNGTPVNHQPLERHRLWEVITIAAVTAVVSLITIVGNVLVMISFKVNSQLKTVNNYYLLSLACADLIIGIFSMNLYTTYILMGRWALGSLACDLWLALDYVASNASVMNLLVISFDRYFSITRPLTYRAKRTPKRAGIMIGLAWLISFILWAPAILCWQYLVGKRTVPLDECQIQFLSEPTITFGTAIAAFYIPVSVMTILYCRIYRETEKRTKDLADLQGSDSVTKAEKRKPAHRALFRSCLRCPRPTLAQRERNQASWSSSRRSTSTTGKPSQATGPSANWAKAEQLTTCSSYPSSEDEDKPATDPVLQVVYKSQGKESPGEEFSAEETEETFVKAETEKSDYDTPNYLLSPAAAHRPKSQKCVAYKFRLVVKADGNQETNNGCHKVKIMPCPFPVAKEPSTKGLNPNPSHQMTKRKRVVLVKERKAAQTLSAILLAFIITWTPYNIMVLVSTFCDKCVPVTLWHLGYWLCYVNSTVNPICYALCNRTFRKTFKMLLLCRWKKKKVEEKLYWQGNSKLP
Method: as §1, §2, §3, §4, §5, §6

[1] = Emraclidine concentration 41.2 nM, read-out: Emax
[2] = Emraclidine concentration 123 nM, read-out: Emax
[3] = Emraclidine concentration 1110 nM, read-out: Emax
[4] = Emraclidine concentration 3330 nM, read-out: Emax
[5] = MK-4710 concentration 41.2 nM, read-out: Emax
[6] = MK-4710 concentration 123 nM, read-out: Emax
[7] = MK-4710 concentration 1110 nM, read-out: Emax
[8] = MK-4710 concentration 3330 nM, read-out: Emax

`CCCCCCCOc1nsnc1C1=CCCCN1C` [KTX-593, 3-(heptyloxy)-4-(1-methyl-1,4,5,6-tetrahydropyridin-2-yl)-1,2,5-thiadiazole] showed an EC50 (human M1 receptor; Emraclidine concentration 0 nM) of 10.1 nM, an Emax (human M1 receptor; Emraclidine concentration 0 nM) of 77.8% and an Emax (human M1 receptor; [1]) of 83.1%. The Emax (human M1 receptor; [2]) was 85.4%, the Emax at […] (human M1 receptor; Emraclidine concentration 370 nM) was 88.4% and the Emax (human M1 receptor; [3]) was 85.2%. The Emax (human M1 receptor; [4]) was 87.8%, the Emax at […] (human M1 receptor; Emraclidine concentration […]) was 83.9% and the “α (cooperativity, affinity shift)” value (human M1 receptor; M4 PAM Emraclidine) was 3.2. The “β (cooperativity, efficacy shift)” value (human M1 receptor; M4 PAM Emraclidine) was 0.8, the “τ (agonist pharmacology)” value (human M1 receptor; M4 PAM Emraclidine) was 0.0 and the “α (cooperativity, affinity shift)” value (human M1 receptor; M4 PAM MK-4710) was 4.1. The “β (cooperativity, efficacy shift)” value (human M1 receptor; M4 PAM MK-4710) was 0.6, the “τ (agonist pharmacology)” value (human M1 receptor; M4 PAM MK-4710) was 0.0 and the EC50 (human M1 receptor; MK-4710 concentration 0 nM) was 8.7 nM. The Emax (human M1 receptor; MK-4710 concentration 0 nM) was 83.7%, the EC50 (human M1 receptor; MK-4710 concentration 41.2 nM) was 7.6 nM and the Emax (human M1 receptor; [5]) was 82.7%. The EC50 (human M1 receptor; MK-4710 concentration 123 nM) was 8.3 nM, the Emax (human M1 receptor; [6]) was 79.9% and the EC50 (human M1 receptor; MK-4710 concentration 370 nM) was 6.5 nM. For the same compound, the Emax at […] (human M1 receptor; MK-4710 concentration 370 nM) was 78.3%, the EC50 (human M1 receptor; MK-4710 concentration 1110 nM) was 6.8 nM and the Emax (human M1 receptor; [7]) was 76.8%. For the same compound, the EC50 (human M1 receptor; MK-4710 concentration 3330 nM) was 5.3 nM, the Emax (human M1 receptor; [8]) was 76.7% and the EC50 (human M1 receptor; MK-4710 concentration […]) was 8.8 nM. It also gave an Emax at […] (human M1 receptor; MK-4710 concentration […]) of 77.6%, an EC50 (human M5 receptor; Emraclidine concentration 0 nM) of 403 nM and an Emax (human M5 receptor; Emraclidine concentration 0 nM) of 63.6%. For the same compound, the Emax (human M5 receptor; [1]) was 71.8%, the Emax (human M5 receptor; [2]) was 68.8% and the Emax at […] (human M5 receptor; Emraclidine concentration 370 nM, read-out: Emax) was 67.4%. For the same compound, the Emax (human M5 receptor; [3]) was 66.9%, the Emax (human M5 receptor; [4]) was 71.9% and the Emax at […] (human M5 receptor; Emraclidine concentration […], read-out: Emax) was 67.1%. For the same compound, the “α (cooperativity, affinity shift)” value (human M5 receptor; M4 PAM Emraclidine) was 10.6, the “β (cooperativity, efficacy shift)” value (human M5 receptor; M4 PAM Emraclidine) was 1.1 and the “τ (agonist pharmacology)” value (human M5 receptor; M4 PAM Emraclidine) was 0.0. The “α (cooperativity, affinity shift)” value (human M5 receptor; M4 PAM MK-4710) was 1.4, the “β (cooperativity, efficacy shift)” value (human M5 receptor; M4 PAM MK-4710) was 0.8 and the “τ (agonist pharmacology)” value (human M5 receptor; M4 PAM MK-4710) was 0.1. It also gave an EC50 (human M5 receptor; MK-4710 concentration 0 nM) of 245 nM, an Emax (human M5 receptor; MK-4710 concentration 0 nM) of 81.82% and an Emax (human M5 receptor; [5]) of 78.3%. It also gave an Emax (human M5 receptor; [6]) of 78.8%, an Emax at […] (human M5 receptor; MK-4710 concentration 370 nM, read-out: Emax) of 76.6% and an Emax (human M5 receptor; [7]) of 69.7%. For the same compound, the Emax (human M5 receptor; [8]) was 77.3% and the Emax at […] (human M5 receptor; MK-4710 concentration […], read-out: Emax) was 69.7%.
